According to PubChem BioAssay (NCI):
Values joined by “and” are separate entries in the source; they are usually repeats but may differ in a detail not shown here. Equal values may be shown once.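 The compound was tested at five concentrations on cells cultured in 96-well plates, with a 48-hour exposure period. At the GI50, growth is halved. TGI denotes the concentration required for complete inhibition of growth.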

Experiments:
Assay in all cases: NCI tumour cell line growth inhibition, 48 h
SK-MEL-2 melanoma = test system: SK-MEL-2 melanoma
SNB-19 CNS = test system: SNB-19 CNS
HT29 colon = test system: HT29 colon
HL-60(TB) leukemia = test system: HL-60(TB) leukemia
SR leukemia = test system: SR leukemia
MDA-MB-231 breast = test system: MDA-MB-231 breast
M14 melanoma = test system: M14 melanoma
OVCAR-5 ovarian = test system: OVCAR-5 ovarian
SN12C renal = test system: SN12C renal
NCI-H460 lung = test system: NCI-H460 lung

Structure (SMILES) | GI50 (SK-MEL-2 melanoma) [µM] | TGI (SK-MEL-2 melanoma) [µM] | GI50 (SNB-19 CNS) [µM] | TGI (SNB-19 CNS) [µM] | GI50 (HT29 colon) [µM] | TGI (HT29 colon) [µM] | GI50 (HL-60(TB) leukemia) [nM] | TGI (HL-60(TB) leukemia) [µM] | GI50 (SR leukemia) | TGI (SR leukemia) [µM] | GI50 (MDA-MB-231 breast) [µM] | TGI (MDA-MB-231 breast) [µM] | GI50 (M14 melanoma) [nM] | TGI (M14 melanoma) [µM] | GI50 (OVCAR-5 ovarian) [µM] | TGI (OVCAR-5 ovarian) [µM] | GI50 (SN12C renal) [µM] | TGI (SN12C renal) [µM] | GI50 (NCI-H460 lung) [µM] | TGI (NCI-H460 lung) [µM]
O=c1cccc(C#CC#CC2=CCCCC2)o1 | 10.3 | > 49 | 12 | 32.6 | 14 | > 100 | 4770 | 18.3 | 30.7 nM | 23.4 | 1.96 | 5.3 | 2130 | 6.34 | 6.21 | 10.2 | 0.516 | 1.48 | 10.6 | 21.8
CCn1c(-c2ccc(OC(C)=O)cc2)c(C)c2cc(OC(C)=O)ccc21 | – | 37.2 | – | > 100 | – | 89.6 | – | 42.9 | – | 30.8 | – | 38.3 | – | 38.9 | – | 55 | – | 79 | – | 56.4
O=S(=O)(Nc1cc(Sc2cccc3cccnc23)c(O)c2ccccc12)c1ccccc1 | 2.48 | 13.4 | 1.98 | 21.4 | 2.42 | 14.4 | 487 | 4.69 | 426 nM | 17.2 | 0.47 | 6.01 | 1120 | 9.2 | 1.99 | 11 | 0.798 | 3.6 | 0.499 | 13.7
C/C(N=NC(=S)N(C)C)=C1\C=CC=CN1O | – | > 56.2 | – | > 100 | – | > 100 | – | > 53 | – | > 100 | – | > 100 | – | > 100 | – | > 100 | – | > 100 | – | > 100
O=C(/C=C\c1ccc(NCc2ccc(C(=O)O)cc2)cc1)CCl | 15 | 30.5 | 15.3 | 29.1 | 18.9 | 37.8 | 14800 | 36.7 | 3330 nM | 10.9 | 12.7 | 27 | 15000 | 35.3 | 17.8 | 34.5 | 11.2 | 23.7 | 17 | 34.3
O=C(CCC1OCCO1)Nc1cc(NCc2ccccc2)ccc1OCc1ccccc1 | – | 49.7 | – | > 100 | – | 96.6 | – | 97.3 | – | 92 | – | > 100 | – | > 100 | – | > 100 | – | > 100 | – | > 100
COc1cc(C(=O)c2cc(C)c3[nH]c4ccc(C)cc4c3c2C)cc(OC)c1OC | – | > 100 | < 0.01 | > 100 | < 0.01 | 1.62 | < 10 | < 0.01 | < 10 nM | > 100 | < 0.01 | – | < 10 | > 100 | < 0.01 | > 100 | < 0.01 | > 100 | < 0.01 | > 100
Br[C](Br)(Br)[Hg][c]1ccccc1 | 17.8 | 32 | 16.6 | 30.6 | 11.1 | 25.5 | 2280 | 6.62 | 3320 nM | 20.4 | 18.1 | 41.3 | 5230 | 12.2 | 15.4 | 28.8 | 16.2 | 29.7 | 16.8 | 37.9
CC(=O)N[C@H]1CSSC[C@@H](C(N)=O)NC(=O)[C@H](C(C)C)NC(=O)[C@H](C)NC(=O)[C@H](Cc2cnc[nH]2)NC1=O | > 100 | > 100 | > 100 | > 100 | > 100 | > 100 | > 100000 | > 100 | > 100000 nM | > 100 | > 100 | > 100 | > 100000 | > 100 | > 100 | > 100 | > 100 | > 100 | > 100 | > 100
C[C@]12CC[C@@H]3c4cc(OCC(F)(F)F)c(O)cc4/C(=N/O)C[C@H]3[C@@H]1CC[C@@H]2O | – | 0.852 | – | > 63.1 | – | 13.2 | 31 | > 100 | 3.19 nM and 15.7 nM | – | – | 1.5 | 51.3 | 16.9 | – | > 58.2 | – | 48.3 | 0.0362 | 3.79
